Source: patent US20160177259A1, “[…]” (Evonik Degussa GmbH, priority 2014, published 2016)

Test system: Clostridium ljungdahlii
Assay: Example 1 redone at shaking speed 100 min-1 (Example 1b)
Assay type: cell-based
Procedure: For the production, anaerobic carbonate buffer (adjusted with KOH 1.4 g/L) was used. The only addition to the buffer was L-cysteine HCl at different concentrations.
For identical autotrophic productions, 500 mL septum bottles were filled with 100 mL carbonate buffer and shaken at 150 min^−1 in an open shaking water bath shaker Innova 3100 by New Brunswick Scientific. The reactions were carried out at 37° C. with manual control of the pH. Once the pH dropped below 5.5, KOH was replenished from a stock solution of 140 g/L. In the present experiments the pH in both reactors were checked at the following points in time 50.3 h, 73.3 h and corrected by the addition of each 1.4 g/L KOH manually.
The reactors were inoculated with a synthesis gas mixture of 67% H2 and 33% CO2 and pressure of 0.8 bar applied. To replenish the depleted gas, the gas above the reactors was replaced once a day and again the pressure brought to 0.8 bars.
The reactor was started by seeding autotrophic grown cells at an OD of 0.2. The preculture was carried out continuously in a 1 L bottle with 500 mL complex medium. The complex medium consisting of 1 g/lNH4Cl, 0.1 g/l KCl, 0.2 g/l MgSO4 ×7 H2O, 0.8 g/l NaCl, 0.1 g/l KH2PO4, 20 mg/l CaCl2 ×2 H2O, 20 g/l MES, 1 g/l yeast extract, 0.4 g/L L-Cysteine-HC1, 20 mg/l nitrilotriacetic acid, 10 mg/l MnSO4×H2O, 8 mg/l (NH4)2Fe(SO4)2×6 H2O, 2 mg/l CoCl2×6 H2O, 2 mg/l ZnSO4 33 7 H2O, 0.2 mg/l CuCl 2 33 2 H2O, 0.2 mg/l Na2MoO4×2 H2O, 0.2 mg/l NiCl2×6 H2O, 0.2 mg/l Na2SeO4, 0.2 mg/l Na2WO4×2 H2O, 20 μg/l d-Biotin, 20 μg/l folic acid, 100 μg/l pyridoxine HCl, 50μg/l thiamine-HCl×H2O, 50 μg l of riboflavin, 50 μg/l nicotinic acid, 50 μg/l Ca-pantothenate, 1 μg/l vitamin B12, 50μg/l p-aminobenzoate, 50 μg/l lipoic acid. The culture was then gassed continuously with synthesis gas (67% H2, 33% CO2) at a flow rate of 3 l/h over a filter with pore size 10 microns. The cells were in late log phase growth at an OD of 0.37 and where anaerobically centrifuged (4500 rpm, 4300 g, 20° C., 10 min). The supernatant was discarded and the cell pellet resuspended in 10 ml carbonate buffer. The prepared cells were then used to inoculate the actual tests.
When sampling each 5 ml sample was removed for determination of OD600, pH and the product spectrum. The determination of the product concentration was performed using quantitative 1H-NMR spectroscopy. As an internal quantification standard sodium trimethylsilylpropionate was used (T(M)SP).
The example 1 above was redone with only a difference in the shaking speed on the septum bottles for autotrophic productions. The shaking speed used was 100 min^−1.
A reporting error in example 1 was noticed where the results of cysteine for reactor 1 and 2 were switched.

[1] = reactor 1, 0.1 g/L L-Cysteine-HCl, 100 min-1, 0.0 h
[2] = reactor 1, 0.1 g/L L-Cysteine-HCl, 100 min-1, 24.5 h
[3] = reactor 1, 0.1 g/L L-Cysteine-HCl, 100 min-1, 50.3 h
[4] = reactor 1, 0.1 g/L L-Cysteine-HCl, 100 min-1, 73.3 h
[5] = reactor 1, 0.1 g/L L-Cysteine-HCl, 100 min-1, 92.3 h
[6] = reactor 2, 0.4 g/L L-Cysteine-HCl, 100 min-1, 0.0 h
[7] = reactor 2, 0.4 g/L L-Cysteine-HCl, 100 min-1, 24.5 h
[8] = reactor 2, 0.4 g/L L-Cysteine-HCl, 100 min-1, 50.3 h
[9] = reactor 2, 0.4 g/L L-Cysteine-HCl, 100 min-1, 73.3 h
[10] = reactor 2, 0.4 g/L L-Cysteine-HCl, 100 min-1, 92.3 h

## Cl.N[C@@H](CS)C(=O)O [L-Cysteine-HCl, L-cysteine hydrochloride]
[1]
  Acetate (NMR): 13 mg/L
  Ethanol (NMR): 6 mg/L
  OD600: 0.25
[2]
  Acetate (NMR): 1418 mg/L
  Ethanol (NMR): 19 mg/L
  OD600: 0.25
  Δp: 0.6 bar
[3]
  Acetate (NMR): 2556 mg/L
  Ethanol (NMR): 130 mg/L
  OD600: 0.30
  Δp: 0.6 bar
[4]
  OD600: 0.30
  Δp: 0.6 bar
[5]
  Acetate (NMR): 6960 mg/L
  Ethanol (NMR): 321 mg/L
  OD600: 0.26
  Δp: 0.4 bar
[6]
  Acetate (NMR): 15 mg/L
  Ethanol (NMR): 8 mg/L
  OD600: 0.24
[7]
  Acetate (NMR): 2331 mg/L
  Ethanol (NMR): 27 mg/L
  OD600: 0.23
  Δp: 0.6 bar
[8]
  Acetate (NMR): 3197 mg/L
  Ethanol (NMR): 128 mg/L
  OD600: 0.26
  Δp: 0.5 bar
[9]
  OD600: 0.22
  Δp: 0.3 bar
[10]
  Acetate (NMR): 5067 mg/L
  Ethanol (NMR): 150 mg/L
  OD600: 0.22
  Δp: 0.3 bar
